Measured values taken from US11584747B2, “Substituted pyridopyrimidinonyl compounds useful as T cell activators” (BRISTOL-MYERS SQUIBB COMPANY, priority 2019, dated 2023).
pEC50, pIC50: −log10 of the molar value. Read-outs that look alike come from different tables or passages of the source.

Key:
whole blood (pERK) = test: pERK Whole Blood assay (Table A; no whole-blood pERK method described); format: cell-based; details: normalized
human DGKα = human DGKα (Homo sapiens (Human), UniProt P23743); test: DGKα ADPGLO assay (detergent/lipid micelle substrate); format: biochemical; details: truncated DGK alpha; read-out: DGK alpha ADPGLO (Truncated) IC50
Description: DGK Alpha ADPGLO (Truncated) IC50 (uM)
The detergent/lipid micelle was prepared by combining 15 g phosphatidylserine (Avanti 840035P) and 1 g diacylglycerol (8008110) and dissolving into 150 mL chloroform in a 2 L round bottom flask. Chloroform was removed under high vacuum by rotary evaporation. […] The lipid/detergent solution was split into 5 mL aliquots and stored at −80° C.

human DGKζ = human DGKζ (Homo sapiens (Human), UniProt Q13574); test: DGKζ LIPGLO assay (extruded liposome substrate, ADP-Glo luminescence); format: biochemical; details: liposome assay; read-out: DGK zeta LIPGLO IC50
[1] = test system: human venous whole blood (IFN-γ); test: Human whole blood IFN-γ assay; format: cell-based; details: whole blood, normalized to 3 μM reference compound as 100% activation, read-out: IFN-γ Whole Blood Normalized EC50
Description: Human venous whole blood (22.5 μL per well), obtained from healthy donors, was pre-treated with compounds for one hour at 37° C. in a humidified 95% air/5% CO2 incubator. The blood was stimulated with 2.5 μL anti-human CD3 and anti-CD28 mAb at a final concentration of 1 μg/mL each for 24 hours at 37° C. IFN-γ in the supernatants was measured using AlphLISA kit (Cat #AL217).

Sequence of human DGKα (P23743 whole entry, looked up, the tested form may be a part): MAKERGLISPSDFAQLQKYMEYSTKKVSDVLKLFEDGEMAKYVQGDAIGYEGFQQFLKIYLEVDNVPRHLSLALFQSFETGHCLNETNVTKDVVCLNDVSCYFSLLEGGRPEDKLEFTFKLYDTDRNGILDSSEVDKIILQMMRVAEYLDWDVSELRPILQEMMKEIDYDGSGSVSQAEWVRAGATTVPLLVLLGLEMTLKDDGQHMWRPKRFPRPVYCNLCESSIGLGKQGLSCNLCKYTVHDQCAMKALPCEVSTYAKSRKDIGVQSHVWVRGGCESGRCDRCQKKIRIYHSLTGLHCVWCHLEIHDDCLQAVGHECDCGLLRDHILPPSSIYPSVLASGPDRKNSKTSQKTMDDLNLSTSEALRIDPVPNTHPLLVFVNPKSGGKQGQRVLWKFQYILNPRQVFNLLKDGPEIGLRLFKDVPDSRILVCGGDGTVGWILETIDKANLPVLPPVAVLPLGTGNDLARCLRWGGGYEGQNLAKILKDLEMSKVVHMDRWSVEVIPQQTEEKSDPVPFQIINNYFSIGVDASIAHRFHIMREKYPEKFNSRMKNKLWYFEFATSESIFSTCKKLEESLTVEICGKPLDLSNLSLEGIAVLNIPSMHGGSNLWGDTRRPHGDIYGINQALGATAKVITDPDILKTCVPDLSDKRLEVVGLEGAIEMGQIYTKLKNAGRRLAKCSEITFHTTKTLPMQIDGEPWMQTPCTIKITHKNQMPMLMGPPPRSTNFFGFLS
Sequence of human DGKζ (Q13574 other isoform, or with tags, fused parts or gaps): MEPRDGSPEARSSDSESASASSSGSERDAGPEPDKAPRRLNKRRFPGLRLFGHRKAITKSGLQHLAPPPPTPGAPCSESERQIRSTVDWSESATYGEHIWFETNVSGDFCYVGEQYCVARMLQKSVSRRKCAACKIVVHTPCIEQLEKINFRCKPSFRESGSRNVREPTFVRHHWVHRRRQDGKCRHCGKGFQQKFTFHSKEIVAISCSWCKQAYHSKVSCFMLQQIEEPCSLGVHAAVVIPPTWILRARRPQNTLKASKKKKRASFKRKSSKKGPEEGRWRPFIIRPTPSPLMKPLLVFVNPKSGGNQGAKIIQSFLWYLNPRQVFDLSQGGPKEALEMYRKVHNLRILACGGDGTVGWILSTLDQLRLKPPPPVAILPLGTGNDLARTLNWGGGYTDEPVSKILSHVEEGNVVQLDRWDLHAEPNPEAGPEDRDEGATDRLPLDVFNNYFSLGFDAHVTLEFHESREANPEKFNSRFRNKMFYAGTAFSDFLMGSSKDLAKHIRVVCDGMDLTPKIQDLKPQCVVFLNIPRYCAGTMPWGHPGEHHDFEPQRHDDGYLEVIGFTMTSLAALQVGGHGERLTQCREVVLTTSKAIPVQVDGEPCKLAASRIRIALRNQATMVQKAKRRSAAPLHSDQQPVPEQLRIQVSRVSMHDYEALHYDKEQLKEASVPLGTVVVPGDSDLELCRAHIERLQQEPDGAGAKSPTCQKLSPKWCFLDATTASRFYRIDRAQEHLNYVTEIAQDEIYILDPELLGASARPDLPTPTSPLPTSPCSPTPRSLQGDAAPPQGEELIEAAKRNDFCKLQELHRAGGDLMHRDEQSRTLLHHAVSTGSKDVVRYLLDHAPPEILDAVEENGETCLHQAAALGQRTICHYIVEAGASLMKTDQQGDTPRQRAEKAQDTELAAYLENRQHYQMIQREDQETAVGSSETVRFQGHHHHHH

pIC50 (human DGKα) | pIC50 (human DGKζ) | SMILES | pIC50 (whole blood (pERK)) | pEC50 ([1]; Homo sapiens) | pEC50 [1]
7.74 | 6.54 | CC[C@H]1CN(C(C)c2cccc(OC(F)(F)F)n2)[C@H](CC)CN1c1nc(=O)n(C)c2ccc(C#N)nc12 (stereo partly drawn) [Example 245, 4-((2S,5R)-2,5-diethyl-4-(1-(6-(trifluoromethoxy)pyridin-2-yl)ethyl)piperazin-1-yl)-1-methyl-2-oxo-1,2-dihydropyrido[3,2-d]pyrimidine-6-carbonitrile] | 6.39 | 6.66 | –
7.14 | 6.96 | CC[C@H]1CN(C(C)c2cccc(OC(F)F)n2)[C@H](CC)CN1c1nc(=O)n(C)c2ccc(C#N)nc12 (stereo partly drawn) [Example 240, 4-((2S,5R)-4-(1-(6-(difluoromethoxy)pyridin-2-yl)ethyl)-2,5-diethylpiperazin-1-yl)-1-methyl-2-oxo-1,2-dihydropyrido[3,2-d]pyrimidine-6-carbonitrile] | 6.54 | – | 6.57
5.57 | 5.06 | CC[C@H]1CN(C(C)c2ccc(CN3CCC[C@@H](O)C3)cc2)[C@H](CC)CN1c1nc(=O)n(C)c2ccc(C#N)nc12 (stereo partly drawn) [Example 289, 4-((2S,5R)-2,5-diethyl-4-(1-(4-(((R)-3-hydroxypiperidin-1-yl)methyl)phenyl)ethyl)piperazin-1-yl)-1-methyl-2-oxo-1,2-dihydropyrido[3,2-d]pyrimidine-6-carbonitrile] | 6.46 | 5.24 | –
7.11 | 6.96 | CC[C@H]1CN(C(C)c2cccc(OC)n2)[C@H](CC)CN1c1nc(=O)n(C)c2ccc(C#N)nc12 (stereo partly drawn) [Example 215, 4-((2S,5R)-2,5-diethyl-4-(1-(6-methoxypyridin-2-yl)ethyl)piperazin-1-yl)-1-methyl-2-oxo-1,2-dihydropyrido[3,2-d]pyrimidine-6-carbonitrile] | 4.70 | – | 6.77
7.39 | 7.00 | CCC(c1ccc(CN2CCOCC2)cc1)N1C[C@H](CC)N(c2nc(=O)n(C)c3ccc(C#N)nc23)C[C@H]1CC (stereo partly drawn) [Example 267, 4-((2S,5R)-2,5-diethyl-4-(1-(4-(morpholinomethyl)phenyl)propyl)piperazin-1-yl)-1-methyl-2-oxo-1,2-dihydropyrido[3,2-d]pyrimidine-6-carbonitrile] | 5.99 | – | 7.35
6.34 | 6.04 | CC[C@H]1CN(C(C)c2cccc(OC(F)F)n2)[C@H](CC)CN1c1nc(=O)n(C)c2ccc(C#N)nc12 (stereo partly drawn) [Example 241, 4-((2S,5R)-4-(1-(6-(difluoromethoxy)pyridin-2-yl)ethyl)-2,5-diethylpiperazin-1-yl)-1-methyl-2-oxo-1,2-dihydropyrido[3,2-d]pyrimidine-6-carbonitrile] | 6.72 | – | 5.62
6.70 | 5.61 | CC[C@H]1CN(C(C)c2ccc(CN3CCN(C(C)=O)CC3)cc2)[C@H](CC)CN1c1nc(=O)n(C)c2ccc(C#N)nc12 (stereo partly drawn) [Example 283, 4-((2S,5R)-4-(1-(4-((4-acetylpiperazin-1-yl)methyl)phenyl)ethyl)-2,5-diethylpiperazin-1-yl)-1-methyl-2-oxo-1,2-dihydropyrido[3,2-d]pyrimidine-6-carbonitrile] | 5.20 | – | 5.90
6.20 | 6.04 | CCC(c1ccc(OCC2CC2)cc1F)N1C[C@H](CC)N(c2nc(=O)n(C)c3ccc(C#N)nc23)C[C@H]1CC (stereo partly drawn) [Example 199, 4-((2S,5R)-4-(1-(4-(cyclopropylmethoxy)-2-fluorophenyl)propyl)-2,5-diethylpiperazin-1-yl)-1-methyl-2-oxo-1,2-dihydropyrido[3,2-d]pyrimidine-6-carbonitrile] | 4.95 | – | 5.69
8.70 | 7.89 | CCC(c1ccc(OC(F)F)cc1F)N1C[C@H](CC)N(c2nc(=O)n(C)c3ccc(C#N)nc23)C[C@H]1CC (stereo partly drawn) [Example 232, 4-((2S,5R)-4-(1-(4-(difluoromethoxy)-2-fluorophenyl)propyl)-2,5-diethylpiperazin-1-yl)-1-methyl-2-oxo-1,2-dihydropyrido[3,2-d]pyrimidine-6-carbonitrile] | 7.36 | – | 7.36
